According to ChEMBL document CHEMBL1201862, “PubChem BioAssay data set” (2004):
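Protocol summary: plate cells (96-well), add compound at 5 concentrations, incubate 48 h, interpolate endpoints linearly. Here, GI50 denotes the concentration required for 50% inhibition of growth.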 Active and inactive are the calls of the source. Cut-off read from the data, not from the text of the source: active = GI50 up to about 1.1 µM and inactive = higher.

How the values were obtained:
Experiment in all cases: growth of human tumour cells (NCI), 48 h
[1] = test system: 786-0
[2] = test system: A498
[3] = test system: A549
[4] = test system: BT-549
[5] = test system: CAKI-1
[6] = test system: CCRF-CEM
[7] = test system: COLO 205
[8] = test system: DU-145
[9] = test system: EKVX
[10] = test system: HCT-116
[11] = test system: HCT-15
[12] = test system: HL-60
[13] = test system: HOP-62
[14] = test system: HOP-92
[15] = test system: HT-29
[16] = test system: Hs-578T
[17] = test system: IGROV-1
[18] = test system: K562
[19] = test system: KM12
[20] = test system: LOX IMVI
[21] = test system: M14
[22] = test system: MCF7
[23] = test system: MDA-MB-231
[24] = test system: MDA-MB-435
[25] = test system: MDA-N
[26] = test system: MOLT-4
[27] = test system: Malme-3M
[28] = test system: NCI-H226
[29] = test system: NCI-H23
[30] = test system: NCI-H522
[31] = test system: NCI/ADR-RES
[32] = test system: OVCAR-3
[33] = test system: OVCAR-4
[34] = test system: OVCAR-5
[35] = test system: OVCAR-8
[36] = test system: PC-3
[37] = test system: RPMI-8226
[38] = test system: SF-268
[39] = test system: SF-295
[40] = test system: SF-539
[41] = test system: SK-MEL-28
[42] = test system: SK-MEL-2
[43] = test system: SK-MEL-5
[44] = test system: SK-OV-3
[45] = test system: SN12C
[46] = test system: SNB-75
[47] = test system: SR
[48] = test system: SW-620
[49] = test system: T47D
[50] = test system: TK-10
[51] = test system: U-251
[52] = test system: UACC-257
[53] = test system: UACC-62
[54] = test system: UO-31
[55] = test system: ACHN
[56] = test system: HCC 2998
[57] = test system: NCI-H460
[58] = test system: RXF 393
[59] = test system: SNB-19

## COc1cccc2c1-c1nc(N)c3c(OC)cccc3c1C2=O
[1]
  GI50: 35.9 µM (inactive)
[2]
  GI50: > 100 µM (inactive)
[3]
  GI50: > 100 µM (inactive)
[4]
  GI50: > 100 µM (inactive)
[5]
  GI50: > 100 µM (inactive)
[6]
  GI50: > 100 µM (inactive)
[7]
  GI50: > 100 µM (inactive)
[8]
  GI50: > 100 µM (inactive)
[9]
  GI50: 54.1 µM (inactive)
[10]
  GI50: > 100 µM (inactive)
[11]
  GI50: 28.9 µM
[12]
  GI50: 19.6 µM (inactive)
[13]
  GI50: 22.8 µM (inactive)
[14]
  GI50: > 100 µM (inactive)
[15]
  GI50: 28.8 µM (inactive)
[16]
  GI50: 22.2 µM (inactive)
[17]
  GI50: > 100 µM (inactive)
[18]
  GI50: 64.7 µM (inactive)
[19]
  GI50: 16.1 µM (inactive)
[20]
  GI50: 59.7 µM (inactive)
[21]
  GI50: > 100 µM (inactive)
[22]
  GI50: > 100 µM (inactive)
[23]
  GI50: 19.1 µM (inactive)
[24]
  GI50: > 100 µM (inactive)
[25]
  GI50: > 100 µM (inactive)
[26]
  GI50: 53.5 µM (inactive)
[27]
  GI50: > 100 µM (inactive)
[28]
  GI50: 48.3 µM (inactive)
[29]
  GI50: 24.9 µM (inactive)
[30]
  GI50: > 100 µM (inactive)
[31]
  GI50: > 100 µM (inactive)
[32]
  GI50: > 100 µM (inactive)
[33]
  GI50: 62.8 µM (inactive)
[34]
  GI50: > 100 µM (inactive)
[35]
  GI50: 85.5 µM (inactive)
[36]
  GI50: > 100 µM (inactive)
[37]
  GI50: > 100 µM (inactive)
[38]
  GI50: 68.4 µM (inactive)
[39]
  GI50: > 100 µM (inactive)
[40]
  GI50: > 100 µM (inactive)
[41]
  GI50: > 100 µM (inactive)
[42]
  GI50: > 100 µM (inactive)
[43]
  GI50: > 100 µM (inactive)
[44]
  GI50: > 100 µM (inactive)
[45]
  GI50: 95.1 µM (inactive)
[46]
  GI50: 22.3 µM (inactive)
[47]
  GI50: > 100 µM (inactive)
[48]
  GI50: > 100 µM (inactive)
[49]
  GI50: > 100 µM (inactive)
[50]
  GI50: > 100 µM (inactive)
[51]
  GI50: > 100 µM (inactive)
[52]
  GI50: > 100 µM (inactive)
[53]
  GI50: > 100 µM (inactive)
[54]
  GI50: 45.1 µM (inactive)

## COCCN(CCNC(=O)c1cccc2c(N)c3cccc(C)c3nc12)CCOC
[1]
  GI50: 0.562 µM (active)
[2]
  GI50: 2.78 µM (inactive)
[3]
  GI50: 0.692 µM (active)
[55]
  GI50: 0.681 µM (active)
[4]
  GI50: 5.7 µM (inactive)
[5]
  GI50: 0.528 µM (active)
[6]
  GI50: 1.14 µM (inactive)
[7]
  GI50: 0.436 µM (active)
[8]
  GI50: 1.28 µM (inactive)
[9]
  GI50: 1.31 µM (inactive)
[56]
  GI50: 0.294 µM (active)
[10]
  GI50: 0.9 µM (active)
[11]
  GI50: 1.82 µM
[12]
  GI50: 0.794 µM (active)
[13]
  GI50: 0.948 µM (active)
[14]
  GI50: 6.5 µM (inactive)
[15]
  GI50: 0.558 µM (active)
[16]
  GI50: 1.87 µM (inactive)
[17]
  GI50: 0.571 µM (active)
[18]
  GI50: 0.449 µM (active)
[19]
  GI50: 0.83 µM (active)
[20]
  GI50: 1.04 µM (active)
[21]
  GI50: 1.37 µM (inactive)
[22]
  GI50: 0.136 µM (active)
[23]
  GI50: 0.24 µM (active)
[24]
  GI50: 1.83 µM (inactive)
[25]
  GI50: 0.875 µM (active)
[26]
  GI50: 0.144 µM (active)
[27]
  GI50: 0.695 µM (active)
[28]
  GI50: 1.03 µM (active)
[29]
  GI50: 0.78 µM (active)
[57]
  GI50: 0.302 µM (active)
[30]
  GI50: 0.165 µM (active)
[31]
  GI50: 4.4 µM (inactive)
[32]
  GI50: 2 µM (inactive)
[33]
  GI50: 0.589 µM (active)
[34]
  GI50: 2.2 µM (inactive)
[35]
  GI50: 0.807 µM (active)
[36]
  GI50: 1 µM (active)
[37]
  GI50: 1.12 µM (active)
[58]
  GI50: 1.93 µM (inactive)
[38]
  GI50: 0.35 µM (active)
[39]
  GI50: 2.77 µM (inactive)
[40]
  GI50: 0.931 µM (active)
[41]
  GI50: 7.35 µM (inactive)
[42]
  GI50: 5.36 µM (inactive)
[43]
  GI50: 0.951 µM (active)
[44]
  GI50: 5.16 µM (inactive)
[45]
  GI50: 0.582 µM (active)
[59]
  GI50: 2.48 µM (inactive)
[46]
  GI50: 1.17 µM (inactive)
[48]
  GI50: 0.491 µM (active)
[49]
  GI50: 4.65 µM (inactive)
[50]
  GI50: 1.49 µM (inactive)
[51]
  GI50: 3.47 µM (inactive)
[52]
  GI50: 4.63 µM (inactive)
[53]
  GI50: 2.94 µM (inactive)
